Source: PMC6502651 (ChemMedChem, 2019)
Like-named read-outs stand apart in the source and are kept apart here.

What was measured:
human HDAC1 (hHDAC1) [1] = target: T1, human HDAC1 (hHDAC1) (Homo sapiens, UniProt Q13547); details: read-out: hHDAC1 IC50; reference HDACi; ref [22]–[23]; cited from earlier work
human HDAC1 (hHDAC1) [2] = target: T1, human HDAC1 (hHDAC1); test: In vitro testing on hHDAC1
HepG2 cells = test: HepG2 cytotoxicity bioluminescence assay; format: cell-based; details: Homo sapiens, HepG2, 48 h, read-out: IC50 (HepG2)
[3] = system: 3D7 line of P. falciparum; test: P. falciparum asexual intraerythrocytic growth inhibition; format: cell-based; details: for IC50: Plasmodium falciparum
[4] = system: P. berghei exo-erythrocytic forms; test: P. berghei-Luc liver stage assay; format: cell-based; details: for Selectivity index (SI) = (mammalian cell IC50)/(Pb EEF IC50): HepG2 vs Pb EEF; for IC50: Plasmodium berghei, 48 h, read-out: Pb EEF IC50
[5] = system: mature stage V P. falciparum gametocytes; test: Gametocytocidal activity; format: cell-based; details: Plasmodium falciparum, NF54, 48 h, read-out: Pf stage V gametocytes IC50
human HDAC6 (hHDAC6) = target: T2, human HDAC6 (hHDAC6) (Homo sapiens, UniProt Q9UBN7); test: In vitro testing on hHDAC6
T2 sequence (Q9UBN7 1-1215): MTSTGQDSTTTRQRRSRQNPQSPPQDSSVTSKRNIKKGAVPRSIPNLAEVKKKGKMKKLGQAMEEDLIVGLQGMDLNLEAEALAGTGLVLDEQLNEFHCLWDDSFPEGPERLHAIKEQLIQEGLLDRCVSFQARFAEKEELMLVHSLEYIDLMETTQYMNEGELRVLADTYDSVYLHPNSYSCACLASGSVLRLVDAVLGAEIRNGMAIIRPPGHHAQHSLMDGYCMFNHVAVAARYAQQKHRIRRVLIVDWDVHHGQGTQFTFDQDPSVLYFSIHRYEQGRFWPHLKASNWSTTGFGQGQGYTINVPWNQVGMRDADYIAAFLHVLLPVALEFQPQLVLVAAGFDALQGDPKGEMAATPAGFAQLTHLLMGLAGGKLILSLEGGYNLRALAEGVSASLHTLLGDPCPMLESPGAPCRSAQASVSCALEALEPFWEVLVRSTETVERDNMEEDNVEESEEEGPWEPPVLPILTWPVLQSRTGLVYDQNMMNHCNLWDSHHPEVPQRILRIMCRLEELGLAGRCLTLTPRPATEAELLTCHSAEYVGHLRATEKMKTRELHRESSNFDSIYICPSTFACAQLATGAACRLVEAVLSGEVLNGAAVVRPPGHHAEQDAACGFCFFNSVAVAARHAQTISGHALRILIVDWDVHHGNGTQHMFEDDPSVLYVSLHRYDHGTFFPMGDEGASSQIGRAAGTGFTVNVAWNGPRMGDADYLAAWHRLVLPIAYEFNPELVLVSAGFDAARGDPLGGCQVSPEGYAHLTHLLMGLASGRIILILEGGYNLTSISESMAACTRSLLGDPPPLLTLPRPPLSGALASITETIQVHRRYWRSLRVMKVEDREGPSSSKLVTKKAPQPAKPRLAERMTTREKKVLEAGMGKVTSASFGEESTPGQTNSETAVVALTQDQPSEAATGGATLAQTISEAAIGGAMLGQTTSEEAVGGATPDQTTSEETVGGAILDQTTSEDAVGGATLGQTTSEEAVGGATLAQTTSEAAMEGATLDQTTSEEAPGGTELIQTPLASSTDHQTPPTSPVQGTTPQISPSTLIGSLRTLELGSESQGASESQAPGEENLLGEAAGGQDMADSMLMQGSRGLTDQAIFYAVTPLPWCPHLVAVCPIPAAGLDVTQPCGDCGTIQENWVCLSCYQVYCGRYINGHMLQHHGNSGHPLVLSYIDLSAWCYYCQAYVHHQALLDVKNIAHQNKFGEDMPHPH

P. falciparum histone H4 = test: Protein hyperacetylation assay; format: cell-based; details: trophozoite-stage Pf 3D7, 3 h, 5x IC50
[6] = 3D7, read-out: IC50 (Pf3D7), asexual intraerythrocytic stage P. falciparum 3D7

T1 sequence (Q13547 whole entry): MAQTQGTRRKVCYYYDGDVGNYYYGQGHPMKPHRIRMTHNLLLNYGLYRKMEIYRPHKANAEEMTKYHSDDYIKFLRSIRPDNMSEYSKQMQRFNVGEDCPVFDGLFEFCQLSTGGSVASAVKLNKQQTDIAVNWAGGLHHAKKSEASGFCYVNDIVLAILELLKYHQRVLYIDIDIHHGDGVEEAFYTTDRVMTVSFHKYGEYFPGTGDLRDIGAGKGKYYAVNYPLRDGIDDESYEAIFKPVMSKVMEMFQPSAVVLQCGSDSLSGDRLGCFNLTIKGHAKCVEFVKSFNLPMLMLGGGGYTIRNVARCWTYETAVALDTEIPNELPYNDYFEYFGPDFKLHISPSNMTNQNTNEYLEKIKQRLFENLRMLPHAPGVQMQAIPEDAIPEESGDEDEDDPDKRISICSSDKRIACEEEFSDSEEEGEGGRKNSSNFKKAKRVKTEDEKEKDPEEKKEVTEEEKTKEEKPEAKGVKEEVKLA

Compound | IC50 (human HDAC1 (hHDAC1) [1]) [nM] | IC50 (human HDAC1 (hHDAC1) [2]) [nM] | IC50 (HepG2 cells) [nM] | IC50 [3, 6] [nM] | Selectivity index (SI) = (mammalian cell IC50)/(Pb EEF IC50) [4] | IC50 [4] [nM] | IC50 [5] [nM] | IC50 (human HDAC6 (hHDAC6)) [nM] | Selectivity index (SI) = hHDAC1/hHDAC6 (human HDAC6 (hHDAC6)) | IC50 ([3]; 3D7, read-out: IC50 (Pf3D7)) [nM] | histone acetylation compared to the vehicle control (in words) (P. falciparum histone H4) | Selectivity index (SI) = (mammalian cell IC50)/(P. falciparum IC50) ([3]; HepG2 vs Pf3D7)
O=C(NO)c1ccc(CC(=O)N(CCO)c2ccccc2)cc1 [HPOB] | 2100 | – | – | – | – | – | – | – | – | – | – | –
CN(C)c1ccc(C(=O)N(Cc2ccc(C(=O)NO)cc2)C(C)(C)C(=O)NC2CCCCC2)cc1 [Compound 2c, N-(1-(Cyclohexylamino)-2-methyl-1-oxopropan-2-yl)-4-(dimethylamino)-N-(4-(hydroxycarbamoyl)benzyl)benzamide] | – | 450 | > 50000 | 95 | >3 | 20100 | 16300 | 89 | 5 | – | – | –
O=C(CCCCCCC(=O)Nc1ccccc1)NO [SAHA, vorinostat, reference compound] | – | – | – | – | – | – | – | – | – | 170 | significantly increased acetylation | –
CNC(=O)CN(Cc1ccc(C(=O)NO)cc1)C(=O)c1cc(C)cc(C)c1 [Compound 2s, N-(4-(Hydroxycarbamoyl)benzyl)-3,5-dimethyl-N-(2-(methylamino)-2-oxoethyl)benzamide] | – | 290 | 48000 | 54 | 7 | 7170 | 16800 | 44 | 7 | – | – | 889
